Reference: ChEMBL document CHEMBL6153079, “Discovery of noncovalent diaminopyrimidine-based Inhibitors for glioblastoma via a dual FAK/DNA targeting strategy” (Eur J Med Chem, 2025)
Activity calls are given as the source filed them. No cut-off for these calls is given here.

Assays:
[1] = system: U-87 MG; experiment: Antitumor activity against human U-87 MG cells xenografted in BALB/c mouse assessed as inhibition of tumor growth at 5 mg/kg, ip administered once daily for 15 days; type: functional, U-87MG ATCC; details: 360 h, time 15 day, read-out: TGI
[2] = system: U-87 MG; experiment: Induction of apoptosis in human U-87 MG cells assessed as viable cells at 0.2 uM measured upto 24 hrs by Annexin V-FITC/PI staining based flow cytometry analysis (reference value: 98.4%); type: functional, U-87MG ATCC; details: read-out: Activity
[3] = system: U-87 MG; experiment: Induction of DNA damage in human U-87 MG cells incubated for 2.5 to 3 hrs by comet assay; type: functional, cell-based; details: U-87MG ATCC, dose 0.1-2 µM, time 2.5-3 hrs
[4] = system: U-87 MG; experiment: Induction of apoptosis in human U-87 MG cells assessed as viable cells at 0.01 uM measured upto 24 hrs by Annexin V-FITC/PI staining based flow cytometry analysis (reference value: 98.4%); type: functional, U-87MG ATCC; details: read-out: Activity
[5] = system: U-87 MG; experiment: Induction of cell cycle arrest in human U-87 MG cells assessed as accumulation of cells at G2M phase at 2 uM by propidium Iodide staining based flow cytometry analysis (reference value: 9.73%); type: functional, U-87MG ATCC
[6] = system: U-87 MG; experiment: Induction of cell cycle arrest in human U-87 MG cells assessed as accumulation of cells at G2M phase at 0.02 uM by propidium Iodide staining based flow cytometry analysis (reference value: 9.73%); type: functional, U-87MG ATCC
[7] = system: U-87 MG; experiment: Antiproliferative activity against human U-87 MG assessed as inhibition of cell growth at 0.025 to 0.1 uM; type: functional, U-87MG ATCC; details: dose 0.025-0.1 µM
[8] = system: U-87 MG; experiment: Induction of cell cycle arrest in human U-87 MG cells assessed as accumulation of cells at S phase at 2 uM by propidium Iodide staining based flow cytometry analysis (reference value: 9.59%); type: functional, U-87MG ATCC
[9] = system: U-87 MG; experiment: Induction of DNA damage in human U-87 MG cells assessed as comet tail moment at 0.1 to 2 uM incubated for 2.5 to 3 hrs by comet assay; type: functional, U-87MG ATCC; details: time 2.5-3 hrs
[10] = system: U-87 MG; experiment: Induction of apoptosis in human U-87 MG cells assessed as […] in Bcl-xL level at 0.05 to 0.8 uM incubated for 24 hrs by Western blot analysis; type: functional, cell-based; details: U-87MG ATCC, dose 0.05-0.8 µM
[11] = Distribution coefficient, logD of compound in n-Octanol/water at pH 7.4; type: physicochemical
[12] = system: U-87 MG; experiment: Induction of cell cycle arrest in human U-87 MG cells assessed as accumulation of cells at G0/G1 phase at 0.2 uM by propidium Iodide staining based flow cytometry analysis (reference value: 80.68%); type: functional, U-87MG ATCC
[13] = system: U-87 MG; experiment: Induction of cell cycle arrest in human U-87 MG cells assessed as accumulation of cells at […] at 0.2 uM by propidium Iodide staining based flow cytometry analysis (reference value: 1.67%); type: functional, U-87MG ATCC
[14] = system: U-87 MG; experiment: Antiproliferative activity against human U-87 MG assessed as cell growth inhibition at 0.1 to 2 uM; type: functional, cell-based; details: U-87MG ATCC
[15] = system: U-87 MG; experiment: Induction of cell cycle arrest in human U-87 MG cells assessed as accumulation of cells at S phase at 0.02 uM by propidium Iodide staining based flow cytometry analysis (reference value: 9.59%); type: functional, U-87MG ATCC
[16] = Toxicity in BALB/c mouse implanted with human U-87 MG cells assessed as spleen damage at 5 mg/kg, ip administered once daily for 15 days by H and E staining based analysis; type: organism-based; details: in vivo, 360 h, time 15 day
[17] = system: U-87 MG; experiment: Inhibition of colony formation in human U-87 MG cells at 0.005 uM incubated for 14 days and subsequent media replacement with compound for every 3 days by crystal violet staining based analysis; type: functional, cell-based; details: U-87MG ATCC, time 14.0 day
[18] = Cytotoxicity against human 2BS assessed as cell viability incubated for 48 hrs by MTT assay; type: toxicity, cell-based; details: 2BS cells
[19] = system: U-87 MG; experiment: Induction of apoptosis in human U-87 MG cells assessed as necrotic cells at 0.02 uM measured upto 24 hrs by Annexin V-FITC/PI staining based flow cytometry analysis (reference value: 0.62%); type: functional, U-87MG ATCC
[20] = system: U-87 MG; experiment: Inhibition of ERK1/2 phosphorylation in human U-87 MG cells at 0.05 uM incubated for 24 hrs by Western blot analysis; type: cell-based
[21] = molecular target: Focal adhesion kinase 1 (Homo sapiens, UniProt Q05397); experiment: Inhibition of FAK phosphorylation in human U-87 MG cells at 0.8 uM incubated for 24 hrs by Western blot analysis; type: cell-based
[22] = Toxicity in BALB/c mouse implanted with human U-87 MG cells assessed as mortality at 5 to 25 mg/kg, ip administered once daily for 15 days by H and E staining based analysis; type: organism-based; details: in vivo, 360 h, dose 5-25 mg/kg, time 15 day
[23] = system: U-87 MG; experiment: Inhibition of AKT phosphorylation in human U-87 MG cells at 0.8 uM incubated for 24 hrs by Western blot analysis; type: cell-based
[24] = system: U-87 MG; experiment: Antiproliferative activity against human U-87 MG assessed as cell viability incubated for 48 hrs by MTT assay; type: functional, cell-based, U-87MG ATCC
[25] = system: U-87 MG; experiment: Induction of cell cycle arrest in human U-87 MG cells assessed as accumulation of cells at S phase at 0.2 uM by propidium Iodide staining based flow cytometry analysis (reference value: 9.59%); type: functional, U-87MG ATCC
[26] = system: U-87 MG; experiment: Induction of apoptosis in human U-87 MG cells assessed as viable cells at 0.02 uM measured upto 24 hrs by Annexin V-FITC/PI staining based flow cytometry analysis (reference value: 98.4%); type: functional, U-87MG ATCC; details: read-out: Activity
[27] = system: U-87 MG; experiment: Induction of apoptosis in human U-87 MG cells assessed as early apoptotic cells at 0.2 uM measured upto 24 hrs by Annexin V-FITC/PI staining based flow cytometry analysis (reference value: 0.45%); type: functional, U-87MG ATCC
[28] = Toxicity in BALB/c mouse implanted with human U-87 MG cells assessed as hypertrophy in myocardium at 5 mg/kg, ip administered once daily for 15 days by H and E staining based analysis; type: organism-based; details: in vivo, 360 h, time 15 day
[29] = system: U-87 MG; experiment: Induction of apoptosis in human U-87 MG cells assessed as early apoptotic cells at 0.02 uM measured upto 24 hrs by Annexin V-FITC/PI staining based flow cytometry analysis (reference value: 0.45%); type: functional, U-87MG ATCC
[30] = system: U-87 MG; experiment: Induction of cell cycle arrest in human U-87 MG cells assessed as accumulation of cells at G0/G1 phase at 0.02 uM by propidium Iodide staining based flow cytometry analysis (reference value: 80.68%); type: functional, U-87MG ATCC
[31] = system: U-87 MG; experiment: Inhibition of ERK1/2 phosphorylation in human U-87 MG cells at 0.8 uM incubated for 24 hrs by Western blot analysis; type: cell-based
[32] = system: U-87 MG; experiment: Induction of apoptosis in human U-87 MG cells assessed as necrotic cells at 0.01 uM measured upto 24 hrs by Annexin V-FITC/PI staining based flow cytometry analysis (reference value: 0.62%); type: functional, U-87MG ATCC
[33] = system: U-87 MG; experiment: Induction of cell cycle arrest in human U-87 MG cells assessed as accumulation of cells at S phase at 0.01 uM by propidium Iodide staining based flow cytometry analysis (reference value: 9.59%); type: functional, U-87MG ATCC
[34] = Toxicity in BALB/c mouse implanted with human U-87 MG cells assessed as tubular epithelial degeneration in renal cortex at 5 mg/kg, ip administered once daily for 15 days by H and E staining based analysis; type: organism-based; details: in vivo, 360 h, time 15 day

Chain of Focal adhesion kinase 1 (Q05397 2-1052 limits assumed): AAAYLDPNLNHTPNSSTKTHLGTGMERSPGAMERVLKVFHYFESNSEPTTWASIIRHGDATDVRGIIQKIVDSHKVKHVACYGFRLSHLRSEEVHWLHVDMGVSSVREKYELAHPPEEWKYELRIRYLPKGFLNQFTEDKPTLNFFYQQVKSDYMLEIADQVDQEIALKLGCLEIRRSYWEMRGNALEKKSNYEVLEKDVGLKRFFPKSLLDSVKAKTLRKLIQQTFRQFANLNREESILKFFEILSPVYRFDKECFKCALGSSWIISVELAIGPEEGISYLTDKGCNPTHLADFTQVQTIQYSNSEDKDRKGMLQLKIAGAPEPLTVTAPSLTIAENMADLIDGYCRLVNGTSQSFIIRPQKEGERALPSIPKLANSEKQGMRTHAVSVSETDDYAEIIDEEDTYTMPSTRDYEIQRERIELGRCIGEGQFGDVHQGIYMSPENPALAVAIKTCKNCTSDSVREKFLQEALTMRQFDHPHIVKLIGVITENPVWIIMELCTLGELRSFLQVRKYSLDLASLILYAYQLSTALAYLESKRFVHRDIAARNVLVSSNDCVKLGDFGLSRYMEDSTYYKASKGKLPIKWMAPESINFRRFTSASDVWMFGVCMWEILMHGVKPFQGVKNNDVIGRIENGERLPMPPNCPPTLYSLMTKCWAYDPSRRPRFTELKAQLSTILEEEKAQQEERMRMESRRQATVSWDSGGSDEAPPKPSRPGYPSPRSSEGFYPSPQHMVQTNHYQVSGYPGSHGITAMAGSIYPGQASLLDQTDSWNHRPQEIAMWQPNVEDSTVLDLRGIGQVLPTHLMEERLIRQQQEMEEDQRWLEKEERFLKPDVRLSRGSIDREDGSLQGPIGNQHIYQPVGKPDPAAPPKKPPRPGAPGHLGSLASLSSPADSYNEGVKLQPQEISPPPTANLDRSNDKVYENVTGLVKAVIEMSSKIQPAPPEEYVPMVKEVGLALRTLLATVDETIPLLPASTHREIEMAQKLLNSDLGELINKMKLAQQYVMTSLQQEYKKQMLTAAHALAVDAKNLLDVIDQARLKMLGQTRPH

CNC(=O)c1ccccc1Nc1nc(Nc2ccc(N3CCN(CCOC(=O)CCCc4ccc(N(CCCl)CCCl)cc4)CC3)cc2)ncc1C(F)(F)F
inhibition in vivo at 5 mg/kg [1]: 63.7% | viability at 0.2 µM [2]: 63.7% | Activity [3]: Dose-dependent-effect; Ability To Induce Dna Damage Was Stronger Than That Of Tmx And Chlorambucil | viability at 0.01 µM [4]: 74.8% | Activity [5]: 50.11% | Activity [6]: 20.9% | inhibition (INH) [7]: 100% | Activity [8]: 10.99% | Activity [9]: 11.6 | Activity [10]: Active | logD [11]: 6.06 | Activity [12]: 44.98% | Activity [13]: 1.81% | Activity [14]: Active | Activity [15]: 16.42% | Activity [16]: Non-toxic | inhibition [17]: Active | IC50 at 48 h [18]: 11.1 µM | Activity [19]: 5.5% | inhibition [20]: Active | inhibition [21]: 100% | Activity [22]: Non-toxic | inhibition [23]: 100% | IC50 [24]: 0.015 µM | Activity [25]: 11.41% | viability at 0.02 µM [26]: 63.8% | Activity [27]: 28.3% | Activity [28]: Non-toxic | Activity [29]: 25.9% | Activity [30]: 62.68% | inhibition [31]: 100% | Activity [32]: 4.83% | Activity [33]: 13.83% | Activity [34]: Non-toxic
